Experimental data taken from patent publication US10478423B2, “Substituted indazole derivatives active as kinase inhibitiors” (NERVIANO MEDICAL SCIENCES S.R.L., priority 2011, dated 2019).

What was measured:
[1] = tested on: MOLM-13 cells; assay: In vitro cell proliferation assay (CellTiter-Glo), MOLM-13; assay type: cell-based; details: human acute leukemia cells bearing FLT3-ITD mutation, 72 h
Protocol: (§1) The human acute leukemia MOLM-13 AND MV-4-11 cells, bearing a FLT3-ITD mutation, were seeded (5000 cells/well) in white 384 well-plates in complete medium (RPMI 1640 plus 10% Fetal bovine serum) and treated with compounds dissolved in 0.1% DMSO, 24 h after seeding. The cells were incubated at 37° C. and 5% CO2 and after 72 h the plates were processed using CellTiter-Glo assay (Promega) following the manufacturer's instruction.
(§2) CellTiter-Glo is a homogenous method based on the quantification of the ATP present, an indicator of metabolitically active cells. ATP was quantified using a system based on luciferase and D-luciferin resultant into light generation. The luminescent signal was proportional to the number of cells present in culture.
(§3) Briefly, 25 microL/well reagent solution were added to each well and, after 5 minutes shaking, microplates were read by Envision (PerkinElmer) luminometer. Inhibitory activity was evaluated comparing treated versus control data using Symyx Assay Explorer (Symyx Technologies Inc.) program. IC50 was calculated using sigmoidal interpolation curve.

[2] = tested on: MV-4-11 cells; assay: In vitro cell proliferation assay (CellTiter-Glo), MV-4-11; assay type: cell-based; details: MV4-11, human acute leukemia cells bearing FLT3-ITD mutation, 72 h
Protocol: as §1, §2, §3

CN(C)c1ccc(C(=O)Nc2n[nH]c3cc(OCc4ccccc4)ccc23)cc1 [Ref. Compound]
IC50 [1]: 3.91 µM | IC50 [2]: 5.54 µM
